Data reported in article PMC9616786, “Structure and function of the N-terminal extension of the formin INF2” (Cellular and Molecular Life Sciences, 2022).

Biological target: T1, purified CaM from bovine brain (Bos taurus, UniProt P62157)
T1 construct: Calmodulin from bovine brain; purchased Sigma-Aldrich Cat#208694; host or cells: bovine brain (tissue-purified)
Assay: Surface plasmon resonance, equilibrium binding of CaM to immobilized INF2 peptides
Conditions: SPR, in the presence of Ca2+ (1 mM CaCl2), 25 °C; Fig. 4B-D, Fig. S3F
From the text: For use in surface plasmon resonance analysis, the peptide corresponding to amino acids 2-19 of human INF2 and similar peptides with replacements in the W11, L14 and L18 residues were synthesized in an automated multiple peptide synthesizer (Multipep, Intavis, Köln, Germany) in the Proteomics Facility of the Centro Nacional de Biotecnología (CSIC, Madrid). The INF2 2–36 peptide was obtained as a bespoke product with the same modifications from pepMic (Suzhou, China). These peptides contained two G residues at its N terminus to separate the INF2 sequence from an additional N-terminal end K residue, which was biotinylated in the ε-amino group. For use in NMR studies, the INF2 2–36 and 2-19 peptides were synthesized to order, without any modification, by CASLO ApS (Denmark). All the peptides were synthesized using the solid-phase synthetic procedures and standard Fmoc [N-(9-fluorenyl)methoxycarbonyl] chemistry, and then underwent reverse-phase HPLC purification.
All surface plasmon resonance experiments were carried out at 25 °C in a Biacore 3000 (Cytiva) robotic biosensor. Analyses were performed using HBSP (10 mM HEPES pH 7.4, 150 mM NaCl, 0.005% surfactant P20) supplemented with 1 mM CaCl2 as running buffer and for the dilution of analytes and ligands. Biotinylated peptides were individually immobilized on a streptavidin-coated sensor chip in flow cells 2, 3 and 4 at a flow rate of 10 µl/min (20–50 RU captured). The empty flow cell 1 was used as a control for non-specific binding and bulk effects. Purified CaM was injected at different concentrations ranging from 13.2 nM to 9.6 µM in duplicate, at a flowrate of 50 µl/min, with an association time of 60 s followed by dissociation for 60 s. After that, the sensor chip was regenerated by injection of 10 mM glycine–HCl, pH 1.7, with a contact time of 12 s. […] Sensorgrams with different concentrations of CaM were overlaid, aligned and analyzed with BIAevaluation Software 4.1, using the double-reference method. […]

Sequence	affinity / interaction with CaM relative to the intact 2-19 peptide (in words)
KGGSVKEGAQRKAAAAKEKAG [Peptide W11L14L18A, 2-19 INF2 peptide with the triple W11L14L18A mutation]	undetectable
KGGSVKEGAQRKAAALKEKLG [Peptide W11A, 2-19 INF2 peptide with the W11A mutation]	undetectable
KGGSVKEGAQRKWAAAKEKAG [L14L18A 2-19 peptide, 2-19 INF2 peptide with the double L14L18A mutation]	reduced affinity
